Assay results reported in patent publication US20250134853A1, “COMPOUNDS AND METHODS FOR USING GALLOYLATED POLYPHENOLS TO TREAT DISEASES MEDIATED BY THIOL ISOMERASES” (Beth Israel Deaconess Medical Center, Inc., priority 2023, published 2025).
Entries after “also recorded” stand apart in the source; their conditions may differ. Read-outs that look alike come from different tables or passages of the source.

What was measured:
[1] = molecular target: T1, PDI (Homo sapiens, UniProt P07237); assay: Di-eosin-GSSG disulfide reductase assay, PDI; type: biochemical
T1 construct: FLAG; made in house; host or cells: Escherichia coli Origami B (DE3)
Protocol: (§1) Di-eosin-GSSG disulfide reductase assay. The probe di-eosin glutathione disulfide, di-eosin-GSSG, was prepared by incubating 100 μM of GSSG with 1 mM of eosin isothiocyanate in 100 mM potassium phosphate containing 2 mM EDTA (pH 7.4), at 25° C. overnight in the dark. The mixture was passed down a PD-10 column and different fractions were collected. A fold change of fluorescence (Ex: 520 nm, Em: 550 nm) was calculated using samples subjected to either vehicle or 20 mM of DTT. Any fraction with a fold change >5 was kept. Using a stock of 10 mM eosin isothiocyanate, a standard curve was generated and concentration of samples were determined accordingly. Di-eosin-GSSG cleavage of purified thiol isomerases and PDI domains was monitored in a 96-well fluorescence plate format. PDI, CGXC-PDI variants, ERp5, ERp57, ERp46 and PDI domains were assayed at 50 nM in the presence or absence of the indicated small molecules. The assay included a thiol isomerase assay buffer (39 mM KH2PO4, 61 mM K2HPO4, 2 mM EDTA, 5 M DTT, pH 7.4) and 150 nM of the di-eosin-GSSG probe. The increase in fluorescence was determined for 60 min by excitation at 520 nm and emission at 550 nm in a Synergy Biotek 4. The reduction of 150 nM di-eosin-GSSG by 5 μM DTT in the presence or absence of mentioned small molecule or proteins served as a negative control.

[2] = molecular target: T1, PDI; assay: Insulin reductase assay; type: biochemical; conditions: 20 μM
Protocol: Insulin reductase assay. Insulin was prepared by mixing 12.5 mg/mL insulin in 50 mM Tris-HCl, pH 8. 1 M HCl was carefully added to drop the pH to 2.0 for solution clarification. Once the solution clarifies, 1 M NaOH was added to rapidly adjust the pH back to 8.0. The solution was then adjusted to 1.5 mM (10 mg/mL) with 50 mM Tris-HCl, aliquoted and stored in −20° C. until use. 2× concentrations of thiol isomerases were prepared (final concentrations as indicated in each assay) and mixed with 1.2 mM DTT (final 0.3 mM) and 0.4 mM insulin (final 0.1 mM) using a thiol isomerase activity assay buffer. Insulin precipitation from enzyme-mediated reduction was assayed in 96-well clear bottom plates at 650 nm absorption.

[3] = test system: PDI domain fragments (a, a′, ab, abb′, b′xa′); assay: Di-eosin-GSSG assay on isolated PDI domain fragments; type: biochemical; conditions: for inhibition of isolated a′ domain cleavage of di-eosin-GSSG: 20 μM
Protocol: as §1

[4] = test system: recombinant PDI, ERp57, and ERp5; assay: Di-eosin-GSSG assay, thiol isomerases at 20 μM compound; type: biochemical; conditions: 15 minute incubation
[5] = test system: thrombus formation in carotid artery after FeCl3; assay: Ferric chloride thrombosis model; type: in vivo, C57Bl/6J mice; conditions: punicalagin by oral gavage
Protocol: Wildtype C57Bl/6J mice were exposed to 100 μg/g punicalagin via oral gavage (n=5) or vehicle (n=7). The carotid artery was surgically isolated, exposed to 10% w/v FeCl3 for 3 min, and visualized by fluorescence microscopy. Time to occlusion was monitored.
Ferric chloride thrombosis model. Thrombus formation induced by ferric chloride was assayed as previously described in Li W, et al. Circ. Res. 115:997-1006, 2014. The mice were treated by oral gavage with 100 μg/g punicalagin or vehicle control for 90 min prior to injury. Before the 90 min time point, the mice were anesthetized with a cocktail of 125 mg/kg ketamine and 12 mg/kg xylazine. The left jugular vein was cannulated for infusion of a DyLight 649 conjugated antibody against GPIbβ (Emfret Analytics; 0.1 μg/g) and 50 mg/kg pentobarbital for maintenance anesthetics. […] Thrombi formation was observed using a 10×0.3 NA water immersion objective mounted to an AX-70 fluorescence microscope (Olympus Japan) equipped with a CCD camera (ORCA Flash 4.0, Hamamatsu Photonics, Japan). Data were analyzed by Slidebook 6.0 (Intelligent Imaging Innovations).
Punicalagin inhibits thrombus formation. […] The ability of orally delivered punicalagin to inhibit thrombus formation following vascular injury was assessed. […] Vessel patency was visualized by fluorescence microscopy using anti-GPIbβ antibody to monitor for vascular occlusion. […]

[6] = molecular target: T2, SARS-CoV-2 M^pro (Severe acute respiratory syndrome coronavirus 2, UniProt P0DTD1)
[7] = test system: SARS-CoV-2; conditions: cited from earlier work
[8] = test system: bleeding following tail clip; assay: Tail clip assay of hemostasis; conditions: punicalagin ingestion
[9] = molecular target: T1, PDI; assay: SDS-PAGE molecular weight shift (alkylation of PDI free thiols); type: biochemical
Source text: FIG. 5 is an image of gel showing detection of PDI free thiol by the labeling of acetamido maleimidylstilbene disulfonic acid (AMS), which shifts the protein to a higher apparent molecular weight.
4-acetomido-4′-maleimidylstilbene-2,2′ disulfonic acid (AMS), which shifts the mass of the protein by 500 Da for every cysteine alkylated, was used as a positive control. […] N-ethylmaleimide (NEM) was used for a control experiment because covalent alkylation of the free thiols will expectedly prevent PDI activity (FIG. 6A).

[10] = molecular target: T3, ERp5 (Homo sapiens, UniProt Q15084); assay: Di-eosin-GSSG disulfide reductase assay, ERp5; type: biochemical; conditions: 20 μM
T3 construct: recombinant His-tagged full-length ERp5, ERp72; His-tag; made in house; host or cells: Escherichia coli Origami B (DE3)
T3 sequence (Q15084 20-440): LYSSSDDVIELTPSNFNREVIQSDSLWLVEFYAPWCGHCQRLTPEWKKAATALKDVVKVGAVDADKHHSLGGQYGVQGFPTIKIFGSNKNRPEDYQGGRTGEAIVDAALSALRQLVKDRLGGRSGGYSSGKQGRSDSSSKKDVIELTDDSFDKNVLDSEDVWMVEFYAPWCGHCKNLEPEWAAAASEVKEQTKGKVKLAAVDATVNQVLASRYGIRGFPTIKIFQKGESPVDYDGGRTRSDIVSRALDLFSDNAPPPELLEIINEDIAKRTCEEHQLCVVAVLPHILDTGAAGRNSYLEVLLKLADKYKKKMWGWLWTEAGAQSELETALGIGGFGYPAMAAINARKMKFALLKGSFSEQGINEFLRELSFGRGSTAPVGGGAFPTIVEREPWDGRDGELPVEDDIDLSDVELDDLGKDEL
Source text: Recombinant protein purification. Recombinant ‘double-tagged’ (streptavidin-binding protein-tagged and FLAG-tagged) full-length PDI, ERp57, recombinant His-tagged full-length ERp5, ERp72, PDI domain fragments, and PDI mutant were cloned into a pET-15b vector at the NdeI and BamHI sites and transformed into Escherichia coli Origami B (DE3) cells (EMD Chemicals). The recombinant proteins were expressed and isolated by affinity chromatography with complete His-Tag purification resin (Roche Applied Science) or Pierce High-Capacity Streptavidin Agarose beads and purified on a Superdex 200 (GE Healthcare).
Di-eosin-GSSG disulfide reductase assay. […] Any fraction with a fold change >5 was kept.

[11] = molecular target: T2, SARS-CoV-2 M^pro; conditions: cited from earlier work
[12] = test system: platelets; conditions: cited from earlier work
[13] = Table 1, IC50 curves on PDI activity (FIGS. 13B-E, 17A-E), read-out: Relative PDI inhibition

T1 sequence (P07237 18-508): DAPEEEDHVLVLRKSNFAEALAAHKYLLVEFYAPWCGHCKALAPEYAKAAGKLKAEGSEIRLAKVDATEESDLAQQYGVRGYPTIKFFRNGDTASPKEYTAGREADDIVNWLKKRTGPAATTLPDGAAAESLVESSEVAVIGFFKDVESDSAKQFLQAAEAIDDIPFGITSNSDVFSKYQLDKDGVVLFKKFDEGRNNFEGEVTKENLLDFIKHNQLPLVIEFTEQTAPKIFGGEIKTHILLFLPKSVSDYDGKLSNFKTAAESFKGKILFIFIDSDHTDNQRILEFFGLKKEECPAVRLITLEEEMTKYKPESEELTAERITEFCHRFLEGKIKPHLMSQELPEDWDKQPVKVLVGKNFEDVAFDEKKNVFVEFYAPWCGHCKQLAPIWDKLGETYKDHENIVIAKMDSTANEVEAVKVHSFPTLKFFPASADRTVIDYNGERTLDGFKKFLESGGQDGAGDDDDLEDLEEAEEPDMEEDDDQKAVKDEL

Compound | IC50 [1, 13] [µM] | inhibition of isolated a′ domain cleavage of di-eosin-GSSG [3] | inhibition of thiol isomerases (PDI, ERp57, ERp5) in words [4] | Inhibition of viral replication (cell system in which shown) [7] | inhibition of PDI (in words) [1] | further results
O=C1O[C@H]2[C@@H]3OC(=O)c4cc(O)c(O)c(O)c4-c4c(O)c(O)c5oc(=O)c6c(c(O)c(O)c7oc(=O)c4c5c76)-c4c(cc(O)c(O)c4O)C(=O)OC[C@H]3OC(O)[C@@H]2OC(=O)c2cc(O)c(O)c(O)c2-c2c1cc(O)c(O)c2O (mixture of isomers) [Punicalagin] | 19 | inhibited the ability of isolated a′ domain to cleave di-eosin-GSSG | strong inhibition of thiol isomerases | 293T-hACE2 and NIC-H460 |  | inhibition of the ability of PDI to reduce insulin [2]: inhibited the ability of PDI to reduce insulin; inhibition of thiol isomerases (PDI, ERp57, ERp5) in words ([4]; listed as punicalagin): strong thiol isomerase inhibition; vessels that never occluded ([5]; 10% FeCl3 for 3 min): ~50%; time for occlusion of vessels that clotted ([5]; compared to controls): consistently prolonged; IC50 ([6]; read-out: SARS-CoV-2 M^pro inhibition; literature values (Table 2); cited from earlier work): 5.7 µM; inhibition of SARS-CoV-2 / infection (in words) [7]: inhibits both SARS-CoV-2 M^pro and omicron variants of SARS-CoV-2 infection; cessation of bleeding, Kaplan Meier curves [8]: prolonged bleeding; total bleeding time ([8]; 1 mm diameter tail transection): 110 s
CC(=O)Nc1ccc(C=Cc2ccc(N3C(=O)C=CC3=O)cc2S(=O)(=O)O)c(S(=O)(=O)O)c1 [AMS, 4-acetomido-4′-maleimidylstilbene-2,2′ disulfonic acid, reference compound] |  |  |  |  |  | shift in molecular weight of PDI in SDS polyacrylamide gel [9]: induced a slight increase in molecular mass
O=C(O[C@@H]1Cc2c(O)cc(O)cc2O[C@H]1c1ccc(O)c(O)c1)c1cc(O)c(O)c(O)c1 [Catechin 3-gallate] | > 20 |  | some inhibition, particularly of ERp5 |  |  | activity against ERp5 (in words) [10]: had activity against ERp5
Oc1cc(O)c2c(c1)O[C@H](c1cc(O)c(O)c(O)c1)[C@H](O)C2 [EGC, epigallocatechin] | > 500 |  | relatively little activity |  | did not inhibit PDI; also recorded: inactive compounds against PDI | 
O=C(O[C@@H]1Cc2c(O)cc(O)cc2O[C@@H]1c1cc(O)c(O)c(O)c1)c1cc(O)c(O)c(O)c1 [EGCG, epigallocatechin gallate] | 243 |  | relatively little activity |  | did not inhibit PDI; also recorded: inactive compounds against PDI | 
O=C(O)c1cc(O)c(O)c(O)c1 [Gallic Acid, 3,4,5-trihydroxybenzoic acid] |  |  | Neither pinocembrin, gallic acid nor glucose showed substantial activity against thiol isomerases |  | inactive compounds against PDI | IC50 [1]: > 500 µM; inhibition of PDI (in words) ([1]; listed as gallate): failed to inhibit PDI
O=C1C[C@@H](c2ccccc2)Oc2cc(O)cc(O)c21 [Pinocembrin] | > 500 |  | no activity |  | failed to inhibit PDI | 
O=C(OC[C@H]1O[C@@H](OC(=O)c2cc(O)c(O)c(OC(=O)c3cc(O)c(O)c(O)c3)c2)[C@H](OC(=O)c2cc(O)c(O)c(OC(=O)c3cc(O)c(O)c(O)c3)c2)[C@@H](OC(=O)c2cc(O)c(O)c(OC(=O)c3cc(O)c(O)c(O)c3)c2)[C@@H]1OC(=O)c1cc(O)c(O)c(OC(=O)c2cc(O)c(O)c(O)c2)c1)c1cc(O)c(O)c(OC(=O)c2cc(O)c(O)c(O)c2)c1 [Tannic acid] | 8.5 | inhibited the ability of isolated a′ domain to cleave di-eosin-GSSG | potently inhibited all thiol isomerases tested | 293T-hACE2 and NIC-H460 | inhibit PDI | inhibition of the ability of PDI to reduce insulin [2]: inhibited the ability of PDI to reduce insulin; inhibition of SARS-CoV-2 / infection (in words) [7]: blocks SARS-CoV-2 virus infection in 293T cells expressing hACE2; Modeling shows gallic acid interaction with His41 or Glu166 [11]: His41; Glu166; hydrogen bonding with M^pro in published molecular dynamic simulations [11]: hydrogen bonding of TA with M^pro Cys145; antiplatelet activities [12]: have antiplatelet activities
O=C(O[C@@H]1Cc2c(O)cc(O)cc2O[C@@H]1c1cc(=O)c(O)c2c(O)c(O)cc([C@H]3Oc4cc(O)cc(O)c4C[C@H]3O)c2c1)c1cc(O)c(O)c(O)c1 [Theaflavin 3-gallate] | 3.4 | inhibited the ability of isolated a′ domain to cleave di-eosin-GSSG | strong inhibition of all three thiol isomerases | Vero Cells |  | inhibition of the ability of PDI to reduce insulin [2]: inhibited the ability of PDI to reduce insulin; IC50 ([6]; literature values (Table 2); read-out: SARS-CoV-2 M^pro inhibition; cited from earlier work): 18.5 µM; reduction of viral counts ([7]; Vero cell assay): 75%
O=c1c(O)cc([C@H]2Oc3cc(O)cc(O)c3C[C@H]2O)cc2c([C@H]3Oc4cc(O)cc(O)c4C[C@H]3O)cc(O)c(O)c12 [Theaflavin] | > 500 |  | poor inhibition |  | failed to inhibit PDI; also recorded: inactive compounds against PDI | 
O=c1cc(-c2ccc(O)cc2)oc2cc(O)cc(O)c12 [apigenin, reference compound] |  |  |  |  |  | inhibition of SARS-CoV-2 / infection (in words) [7]: inhibitors of SARS-CoV-2
Catechin |  |  |  |  |  | activity against ERp5 (in words) [10]: had activity against ERp5
theaflavin 3-3′-digallate [Theaflavin 3,3′-gallate] |  | inhibited the ability of isolated a′ domain to cleave di-eosin-GSSG | strong inhibition of all three thiol isomerases | VeroE6/TMPRSS2 |  | inhibition of isolated PDI fragments ([3]; a, ab, b′xa′, abb′ fragments, PGHG at 10 μM): inhibited isolated a and a′ fragments as well as ab, b′xa′ and abb′x fragments
